Measured values reported in PubChem BioAssay (NCI).
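Tested at 5 concentrations; 48 h exposure; 96-well plates; endpoints linearly interpolated, else capped at highest concentration. TGI denotes the concentration required for complete inhibition of growth.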

Tested on: HT29 colon
Assay: NCI tumour cell line growth inhibition, 48 h

| SMILES | TGI |
| --- | --- |
| FC(F)(F)c1ccc2c(c1)nc(-c1ccccc1)n2CC1CCCN2CCCCC12 (stereo not given) | 38.5 µM |
| CC(C)(C)OC(=O)NCC(=O)NC1CC=CCC1NC(=O)CNC(=O)OC(C)(C)C (stereo not given) | > 100 µM |
| CC[C@@]1(O)C(=O)OCc2c1cc1n(c2=O)Cc2c-1nc1ccccc1c2/C=N/NC(=O)C[N+](C)(C)C | > 100 µM |
| CN(C)/C=N/S(=O)(=O)c1nn2c(C=O)c(-c3ccccc3)nc2s1 | 4.58 µM |

Tested on: NCI-H460 lung
Assay: NCI tumour cell line growth inhibition, 48 h

| SMILES | TGI |
| --- | --- |
| CCCCCCCCCCCCCCCCOCC(Cl)CP(=O)(O)OP(=O)(O)OCC1OC(n2cnc3c(N)ncnc32)C(O)C1O (stereo not given) | > 100 µM |
| FC(F)(F)c1ccc2c(c1)nc(-c1ccccc1)n2CC1CCCN2CCCCC12 (stereo not given) | 39.3 µM |
| CC(C)(C)OC(=O)NCC(=O)NC1CC=CCC1NC(=O)CNC(=O)OC(C)(C)C (stereo not given) | > 100 µM |
| CC[C@@]1(O)C(=O)OCc2c1cc1n(c2=O)Cc2c-1nc1ccccc1c2/C=N/NC(=O)C[N+](C)(C)C | 21.5 µM |
| CN(C)/C=N/S(=O)(=O)c1nn2c(C=O)c(-c3ccccc3)nc2s1 | > 51.4 µM |

Tested on: MDA-MB-435
Assay: NCI tumour cell line growth inhibition, 48 h

| SMILES | TGI |
| --- | --- |
| CCCCCCCCCCCCCCCCOCC(Cl)CP(=O)(O)OP(=O)(O)OCC1OC(n2cnc3c(N)ncnc32)C(O)C1O (stereo not given) | > 100 µM |
| FC(F)(F)c1ccc2c(c1)nc(-c1ccccc1)n2CC1CCCN2CCCCC12 (stereo not given) | 42.3 µM |
| CC(C)(C)OC(=O)NCC(=O)NC1CC=CCC1NC(=O)CNC(=O)OC(C)(C)C (stereo not given) | > 100 µM |
| CC[C@@]1(O)C(=O)OCc2c1cc1n(c2=O)Cc2c-1nc1ccccc1c2/C=N/NC(=O)C[N+](C)(C)C | > 100 µM |
| CN(C)/C=N/S(=O)(=O)c1nn2c(C=O)c(-c3ccccc3)nc2s1 | > 100 µM |

Tested on: OVCAR-3 ovarian
Assay: NCI tumour cell line growth inhibition, 48 h

| SMILES | TGI |
| --- | --- |
| CCCCCCCCCCCCCCCCOCC(Cl)CP(=O)(O)OP(=O)(O)OCC1OC(n2cnc3c(N)ncnc32)C(O)C1O (stereo not given) | > 100 µM |
| FC(F)(F)c1ccc2c(c1)nc(-c1ccccc1)n2CC1CCCN2CCCCC12 (stereo not given) | 40.1 µM |
| CC(C)(C)OC(=O)NCC(=O)NC1CC=CCC1NC(=O)CNC(=O)OC(C)(C)C (stereo not given) | > 100 µM |
| CC[C@@]1(O)C(=O)OCc2c1cc1n(c2=O)Cc2c-1nc1ccccc1c2/C=N/NC(=O)C[N+](C)(C)C | > 100 µM |
| CN(C)/C=N/S(=O)(=O)c1nn2c(C=O)c(-c3ccccc3)nc2s1 | 24.1 µM |

Tested on: CAKI-1 renal
Assay: NCI tumour cell line growth inhibition, 48 h

| SMILES | TGI |
| --- | --- |
| CCCCCCCCCCCCCCCCOCC(Cl)CP(=O)(O)OP(=O)(O)OCC1OC(n2cnc3c(N)ncnc32)C(O)C1O (stereo not given) | > 100 µM |
| FC(F)(F)c1ccc2c(c1)nc(-c1ccccc1)n2CC1CCCN2CCCCC12 (stereo not given) | > 100 µM |
| CC(C)(C)OC(=O)NCC(=O)NC1CC=CCC1NC(=O)CNC(=O)OC(C)(C)C (stereo not given) | > 100 µM |
| CC[C@@]1(O)C(=O)OCc2c1cc1n(c2=O)Cc2c-1nc1ccccc1c2/C=N/NC(=O)C[N+](C)(C)C | > 100 µM |
| CN(C)/C=N/S(=O)(=O)c1nn2c(C=O)c(-c3ccccc3)nc2s1 | 8.68 µM |

Tested on: M14 melanoma
Assay: NCI tumour cell line growth inhibition, 48 h

| SMILES | TGI |
| --- | --- |
| CCCCCCCCCCCCCCCCOCC(Cl)CP(=O)(O)OP(=O)(O)OCC1OC(n2cnc3c(N)ncnc32)C(O)C1O (stereo not given) | > 100 µM |
| FC(F)(F)c1ccc2c(c1)nc(-c1ccccc1)n2CC1CCCN2CCCCC12 (stereo not given) | 31.9 µM |
| CC[C@@]1(O)C(=O)OCc2c1cc1n(c2=O)Cc2c-1nc1ccccc1c2/C=N/NC(=O)C[N+](C)(C)C | 20.5 µM |
| CN(C)/C=N/S(=O)(=O)c1nn2c(C=O)c(-c3ccccc3)nc2s1 | 14.8 µM |

Tested on: NCI-H226 lung
Assay: NCI tumour cell line growth inhibition, 48 h

| SMILES | TGI |
| --- | --- |
| CCCCCCCCCCCCCCCCOCC(Cl)CP(=O)(O)OP(=O)(O)OCC1OC(n2cnc3c(N)ncnc32)C(O)C1O (stereo not given) | > 100 µM |
| FC(F)(F)c1ccc2c(c1)nc(-c1ccccc1)n2CC1CCCN2CCCCC12 (stereo not given) | 65.9 µM |
| CC(C)(C)OC(=O)NCC(=O)NC1CC=CCC1NC(=O)CNC(=O)OC(C)(C)C (stereo not given) | > 100 µM |
| CC[C@@]1(O)C(=O)OCc2c1cc1n(c2=O)Cc2c-1nc1ccccc1c2/C=N/NC(=O)C[N+](C)(C)C | 31.8 µM |
| CN(C)/C=N/S(=O)(=O)c1nn2c(C=O)c(-c3ccccc3)nc2s1 | > 57.4 µM |

Tested on: SK-MEL-5 melanoma
Assay: NCI tumour cell line growth inhibition, 48 h

| SMILES | TGI |
| --- | --- |
| CCCCCCCCCCCCCCCCOCC(Cl)CP(=O)(O)OP(=O)(O)OCC1OC(n2cnc3c(N)ncnc32)C(O)C1O (stereo not given) | > 100 µM |
| FC(F)(F)c1ccc2c(c1)nc(-c1ccccc1)n2CC1CCCN2CCCCC12 (stereo not given) | 28.1 µM |
